Assay: Kinetic release of DHT from PCL20-b-PEO44 micelles (dialysis method, PBS pH 7.4, 37° C.)
Assay type: physicochemical
Conditions: control solution (drug alone)
Method: To the dried micelles, 100 μL of phosphate buffer solution, PBS (pH 7.4) was added. To ensure that the micelles were well dispersed in PBS, the solutions were vortexed. The dispersed micelles were left to stand in a 37° C. warm room for 30 minutes. Once the micelle solution had reached 37° C., it was placed in a dialysis bag which was immersed in a large vial containing warmed PBS (10 mL PBS, pH=7.4, 37° C.). […] The aliquot was dispersed in 4 mL of scintillation cocktail and then counted. Following the removal of each 100 uL aliquot, a 100 uL aliquot of fresh PBS was added.
The dialysis method was used to study the release of DHT from two micelle solutions which differed in the amount of DHT that they contained. The concentration of the solutions studied were 8 mM and 40 mM.

C[C@]12CCC(=O)C[C@@H]1CC[C@@H]1[C@@H]2CC[C@]2(C)[C@@H](O)CC[C@@H]12 [DHT, dihydrotestosterone]
time to complete release: 3 h

Source: US20030176406A1, “Polycaprolactone-b-poly (ethylene oxide) copolymer non-cross-linked micelles as a delivery vehicle for steroid” (McGill University, priority 1999, published 2003)
